From patent US11331375B2, “Compositions and methods for regulating leukocyte adhesion” (University of Virginia Patent Foundation, priority 2015, dated 2022)

How the values were obtained:
HUVEC = experiment: In vitro ATP release assay (luciferin:luciferase), HUVEC; type: cell-based, human
Protocol: In vitro Human arterial and venous ECs were seeded in 24-well plates pre-coated with 0.2% gelatin and grown to confluency. On the day of experiment, the media was removed from each well and cells were carefully washed twice with warm serum free basal EC medium supplemented with 1% BSA. Cells were then incubated in 300 μL of fresh basal EC medium supplemented with 1% BSA for 30 minutes at 37° C. to allow degradation of extracellular ATP released due to mechanical stimulation during washes. Endogenous ecto-nucleotidases were inhibited by incubating EC monolayers with 300 μM ARL 67156 (Tocris) for 30 minutes at 37° C. Cells were then stimulated with recombinant human TNFα (R&D Systems). For dose response experiments, ECs were incubated with 0.1, 1, 5, 10, 50, or 100 ng/mL recombinant TNFα for 30 minutes at 37° C. For time-course experiments, ECs were stimulated with 10 ng/mL recombinant TNFα for different time points up to 1 hour. In experiments where pharmacological inhibitors were employed, ECs were incubated with antagonists in parallel with ARL 67156 for 30 minutes. To inhibit TNFR1, ECs were incubated with the peptide antagonist of the receptor WP9QY (10 μM; Anaspec). […] Cx hemichannels were inhibited with lanthanum (La^3+; 100 μM; Sigma) and Panx1 channels were blocked with carbenoxolone (CBX; 50 μM; Sigma) and the inhibitory peptide ^10panx1 (200 μM; Genscript). […] The role of caspase activation was assessed by inhibition with the pan-caspase blocker Q-VD-OPh (100 μM; Sigma). Following stimulation with TNFα or vehicle, 150 μL of the cell supernatant was collected and immediately placed into pre-chilled 1.5 mL Eppendorf tubes on ice. All samples were centrifuged at 10,000×g for 5 minutes and 50 μL of each sample was transferred to a white, opaque 96-well plate. Using a FluoStar Omega luminometer, 50 μL of luciferin:luciferase reagent (ATP bioluminescence assay kit HSII; Roche) was injected into each well and luminescence was recorded following a 5s orbital mix. ATP concentration in each sample was calculated from a standard curve for all experiments. Data are presented as a % change in ATP release from baseline (i.e. unstimulated cells) and expressed as mean±SEM (n=5 independent experiments with triplicate measurements).

HAoEC = experiment: In vitro ATP release assay, HAoEC; type: cell-based, human
Protocol: In vitro Human arterial and venous ECs were seeded in 24-well plates pre-coated with 0.2% gelatin and grown to confluency. On the day of experiment, the media was removed from each well and cells were carefully washed twice with warm serum free basal EC medium supplemented with 1% BSA. Cells were then incubated in 300 μL of fresh basal EC medium supplemented with 1% BSA for 30 minutes at 37° C. to allow degradation of extracellular ATP released due to mechanical stimulation during washes. Endogenous ecto-nucleotidases were inhibited by incubating EC monolayers with 300 μM ARL 67156 (Tocris) for 30 minutes at 37° C. Cells were then stimulated with recombinant human TNFα (R&D Systems). For dose response experiments, ECs were incubated with 0.1, 1, 5, 10, 50, or 100 ng/mL recombinant TNFα for 30 minutes at 37° C. […] The role of caspase activation was assessed by inhibition with the pan-caspase blocker Q-VD-OPh (100 μM; Sigma). […] Using a FluoStar Omega luminometer, 50 μL of luciferin:luciferase reagent (ATP bioluminescence assay kit HSII; Roche) was injected into each well and luminescence was recorded following a 5s orbital mix. ATP concentration in each sample was calculated from a standard curve for all experiments. Data are presented as a % change in ATP release from baseline (i.e. unstimulated cells) and expressed as mean±SEM (n=5 independent experiments with triplicate measurements).

Src Family Kinases (SFK) = experiment: Western blot of SFK activation (pY416SFK) in venous ECs; type: cell-based, human; details: HUVEC and HSaVEC; acute (5 minute) TNFα
Protocol: Following stimulation with TNFα (in vitro: 10 ng/mL; ex vivo: 50 ng/mL), confluent endothelial cell monolayers or isolated mesenteric venules were homogenized in ice cold Triton extraction buffer (50 mM Tris-HCL, 150 mM NaCl , 5 mM EDTA, 1% deoxycholate, 1% NP-40 and 1% Triton-X100 in phosphate buffered saline and pH adjusted to 7.4) containing protease and phosphatase inhibitors. Cell/Tissue lysates were incubated with rotation at 4° C. for 20 minutes to solubilize proteins, followed by centrifugation for 5 minutes at 13,000× g to pellet cell debris. Protein concentration was quantified using the BCA method. 15-20 μg of total protein was subjected to SDS gel electrophoresis using 4-12% Bis-Tris gels (Invitrogen) and transferred to nitrocellulose membranes for immunoblotting. Membranes were blocked for 1 hr at room temperature with LiCOR blocking solution, then incubated overnight at 4° C. with primary antibodies against pY416SFKs, (BD Biosciences; 1:1000) pY198Panx1 (Alpha Diagnostic Intl (ADI); 1:1000) and GAPDH (Sigma; 1:10,000) or an antibody against the intracellular loop of Panx1 (Panx1-IL) (ADI; 1:1000) (normalization controls). Membranes were then washed and incubated with LiCOR secondary antibodies (1:10,000) and visualized and quantitated using LiCOR Odyssey. To inhibit SFK activity, EC monolayers were incubated with the SFK inhibitor PP2 (Tocris; 10 μM). […] To show specificity for the phosphorylated form of SFKs and Panx1, cell lysates were incubated with alkaline phosphatase for 1 hour at 37° C. Western blot images have been cropped for presentation. Uncropped Western blots can be found in FIGS. 12-13. Data are expressed as mean±SEM (n=3 independent experiments).

C57B1/6J mice = experiment: Intravital microscopy of cremaster muscle for leukocyte adhesion and emigration; type: in vivo, mouse; details: topical TNFα on cremaster, after 120 minutes
Protocol: Mice were prepared for intravital microscopy of the cremaster muscle as described previously^25. Briefly, mice were anesthetized with ketamine hydrochloride (150 mg/kg, IP) and xylazine (7.5 mg/kg, IP). The cremaster was isolated, laid over a viewing pedestal, superfused with bicarbonate-buffered saline. After 30 min equilibration, a venule with a wall shear rate (WSR) of ≥500/s, diameter between 20 μm and 40 μm, and the least number of adherent and emigrated leukocytes was chosen for further study. A 1 min baseline recording was made, after which superfusion was stopped, and 50 μl TNFα (1.7 ng/ml in 0.1% BSA) or vehicle control was added under a saran wrap cover every 30 min. 1 min recordings were made just prior to each addition, for 3 hrs. The TNFα was initially reconstituted in PBS at 3.4 ng/ml and 150 μl aliquots were frozen. An aliquot was mixed 1:1 with BBS containing 0.2% BSA at the time of the experiment. Leukocyte adhesion and emigration were determined by off-line analysis. Leukocytes were considered adherent if they stopped for at least 30 s (expressed as #/mm^2 vessel wall), and emigrated leukocytes were leukocytes identified in the interstitium (expressed as #cells/mm^2 tissue). Data are expressed as mean±SEM (n=6-7 independent animals/group).

Panx1 channels in HUVEC = biological target: T1, Panx1 channels in HUVEC (Homo sapiens, UniProt Q96RD7); experiment: YO-PRO-1 dye uptake assay; type: cell-based; details: TNFα 30 minutes, dose dependent
T1 construct: Primary human umbilical vein endothelial cells (HUVEC) were purchased from Cell Applications; PromoCell 200K-05; C-12231; host or cells: HUVEC, HSaVEC (primary human venous endothelial cells)
T1 sequence (Q96RD7 whole entry): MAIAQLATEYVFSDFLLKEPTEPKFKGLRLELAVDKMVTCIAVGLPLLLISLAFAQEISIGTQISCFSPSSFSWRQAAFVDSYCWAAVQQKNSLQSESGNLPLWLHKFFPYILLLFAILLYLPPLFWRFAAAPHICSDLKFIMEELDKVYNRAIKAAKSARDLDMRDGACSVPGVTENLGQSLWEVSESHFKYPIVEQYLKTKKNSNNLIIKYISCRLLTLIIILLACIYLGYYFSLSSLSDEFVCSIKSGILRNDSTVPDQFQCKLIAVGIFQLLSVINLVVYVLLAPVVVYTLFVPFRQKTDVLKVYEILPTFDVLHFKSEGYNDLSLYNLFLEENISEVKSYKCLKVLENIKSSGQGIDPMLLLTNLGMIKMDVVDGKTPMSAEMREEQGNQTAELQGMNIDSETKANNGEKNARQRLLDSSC
Protocol: HUVECs were cultured on poly-L-lysine coated coverslips and grown to confluence in EGM. Cells were washed three times with 1× PBS and incubated in fresh EGM for 30 minutes prior to stimulation. To stimulate YO-PRO-1 dye uptake, YO-PRO-1 (1 μM) was added to the media and EC monolayers were treated with TNFα at a range of concentrations (0.1 ng/mL-100 ng/mL) for 30 minutes. At the end of the stimulation, cells were washed 3× with 1× PBS and immediately fixed in 4% PFA. Coverslips were then mounted on microscope slides with DAPI ProlongGold mounting agent and visualized on an Olympus IX81 laser scanning confocal microscope. Dye uptake was quantified as the intensity of YO-PRO-1 fluorescence over time using ImageJ software. For time course analysis, YO-PRO-1 was added to the culture media at various time points after TNFα stimulation and incubated to the 30-minute time point. Data are expressed as mean±SEM (n=3 independent experiments).

TNFα was tested, and the “TNFα dose with significant ATP release response” value (HUVEC; EC ATP release, range tested 0.1-100 ng/mL) was no less than 10 ng/mL, the “ATP release on cytokine stimulation” value (HUVEC; HUVEC monolayers) was “significant increase” and the “TNFα concentration giving maximal accumulation of extracellular ATP” value (HUVEC; cultured venous ECs) was 10 ng/mL. The “time to maximal accumulation of extracellular ATP” value (HUVEC; cultured venous ECs, 10 ng/mL TNFα) was “approximately 10 minutes”, the “ATP release on cytokine stimulation” value (HAoEC) was “failed to release ATP” and the “Y416 phosphorylation of SFK” value (Src Family Kinases (SFK)) was “significant increase”. The “increase of leukocyte adhesion” value (C57B1/6J mice) was roughly 2.5 fold, the “increase of leukocyte emigration” value (C57B1/6J mice) was roughly 3.5 fold and the “intracellular YO-PRO-1 dye accumulation” value (Panx1 channels in HUVEC) was “significant increase”.
